Results: patent publication US20260083704A1, “LXR MODULATORS WITH BICYCLIC CORE MOIETY FOR TREATING DYSLIPIDEMIAS” (OrsoBio, Inc., priority 2022, published 2026)
Marks after values point to notes of the source that are not given here.

Columns and labels:
[1] = test system: HFD-fed ZDF rats; assay: HFD-fed Zucker diabetic fatty (ZDF) rat model; format: in vivo
From the text: Data are shown as mean±SD. N=5-8 animals per group. *p≤0.05, **p≤0.01, ***p≤0.001, ****p≤0.0001 vs. vehicle, unless otherwise indicated; ^#p≤0.05 pioglitazone vs. vehicle Kruskal-Wallis (non-parametric One-Way ANOVA) test with Dunn's multiple comparisons test (FIG. 4A, FIG. 4B, FIG. 4D), repeated measures two-way ANOVA with Dunnett's multiple comparisons test (FIG. 4C), two-way ANOVA with Sidak's multiple comparisons test (FIG. 4E), Mann-Whitney test (FIG. 4F-G).
Data are shown as mean±SD. N=5-8 animals per group. *p≤0.05, **p≤0.01, ***p≤0.001, ****p≤0.0001 vs. vehicle, unless otherwise indicated; ^#p≤0.05 pioglitazone vs. vehicle repeated measures two-way ANOVA with Dunnett's multiple comparisons test (FIG. 5A, FIG. 5C, FIG. 5D), Kruskal-Wallis (non-parametric one-way ANOVA) test with Dunn's multiple comparisons test (FIG. 5B, FIG. 5E).
The efficacy of Compound 21/3 was evaluated in three dysmetabolic rodent models including DIO mice, HFD-fed ZDF rats, and HFD-fed SD rats (FIG. 4 and FIG. 5). Briefly, DIO mice were fed a HFD (60% kcal from fat) for 14 weeks and treated with Compound 21/3 (0.3 and 1 mg/kg once daily by oral gavage) for three weeks, […]

[2] = test system: ABCA1 reporter in HT-29; assay: HT-29 ABCA1 reporter assay; format: cell-based; details: Homo sapiens; HT-29, mean ± SD
Description: (§1) The potencies of Compound 21/3 and its analog, Compound pre-6/3, against LXRα and LXRβ were evaluated in biochemical binding assays, cellular mammalian two-hybrid (M2H) interaction assays evaluating nuclear receptor co-repressor (NCOR) recruitment, and cellular reporter assays evaluating transcriptional activity (Table 5).

[3] = test system: SREBP1c reporter in HepG2; assay: HepG2 SREBP1c reporter assay; format: cell-based; details: Homo sapiens; HepG2, mean ± SD
Description: as §1

[4] = test system: ApoC3 and ANGPTL3; assay: Phase 1 study, MAD cohorts: plasma ApoC3 and ANGPTL3 by ELISA; format: in vivo, human; details: healthy subjects, Day 1 to Day 14, 12 h postdose
Description: Lipid parameters, including apolipoprotein B (apoB), were evaluated by NMR LipoProfile® (Labcorp, Burlington, NC. Plasma ApoC3 and ANGPTL3 were evaluated by ELISA (360biolabs, Melbourne, Australia). Peripheral RCT (reverse cholesterol transport) were evaluated by assessing changes in expression of ABCA1/ABCG1 in PBMCs, predose and 4 hours postdose on Days 1 and 14 (Gnomix, Bedford Park, Australia).
In FIG. 14A to 14C, ApoC3 and ANGPTL3 measured 12 h postdose. RCT assessed predose and 4 h postdose on Day 14.

[5] = test system: healthy subjects; assay: Phase 1 study, MAD cohorts: safety and tolerability; format: in vivo, human; details: for Abdominal pain / Any TEAE / Back pain / Diarrhea / Grade ≥2 TEAE / Headache / Pruritis / Serious TEAE / TEAE leading to study drug discontuation / Treatment-related TEAE / subjects with mild (Grade 1), transient increase in serum ALT: MAD; for Abdominal pain / Any TEAE / Back pain / Diarrhea / Grade ≥2 TEAE / Headache / Pruritis / Serious TEAE / TEAE leading to study drug discontuation / Treatment-related TEAE: n = 8
Description: A double-blind, placebo-controlled, single- and multiple-ascending dose FIH Phase 1 study to evaluate the safety, tolerability, PK, and PD of Compound 21/3 in healthy adult subjects was performed. A total of up to 150 subjects were enrolled, including 100 subjects in Parts A and B, and up to 50 subjects in adaptive cohorts in Part C. Within each cohort, 10 subjects were randomized, including 8 subjects randomized to Compound 21/3 and 2 subjects to PTM (placebo-to-match). In single-dose cohorts in Parts A and in any Part C cohort evaluating a higher total daily dose than previously evaluated, safety and tolerability data collected through Day 2 from two sentinel subjects, one randomized to Compound 21/3 and one to PTM, were evaluated prior to dosing of the remaining subjects in each cohort.
An approximately even distribution of healthy male and non-pregnant, non-lactating female subjects 18 to 55 years of age, inclusive, were to be enrolled in the study. There were no significant medical conditions by history, physical examination, or laboratory evaluation. Subjects were not allowed to participate in more than one cohort of the study. Within each MAD cohort, attempts were made to enrich for >3 subjects with elevated TG and/or LDL-C. Following the completion of Screening and admission assessments, eligible subjects were to be enrolled on Day −1. Safety and tolerability assessments, including adverse event (AE) monitoring, laboratory tests, physical examinations, and ECG evaluations were performed throughout the study.
The severity of AEs was graded using the Common Terminology Criteria for Adverse Events version 5.0 (CTCAE v5.0).

With `N#Cc1cccc(C#N)c1-c1c(-c2cccc(-c3ccc(C(=O)O)cc3Cl)c2)n(S(=O)(=O)c2ccc(C(F)F)cc2)c2ccc(F)cc12` [pre-6/3] the “hepatic expression of Angptl3, Angptl4, Angptl8, ApoC1, ApoC2, ApoC3” value ([1]; 5 mg/kg once daily oral) was “suppressed”, the IC50 [2] was 0.7 ± 0.1 nM and the IC50 [3] was 0.2 ± 0.1 nM.
In the case of `N#Cc1cccc(C#N)c1-c1c(-c2cccc(-c3ccc(C(=O)NCC(=O)O)cc3Cl)c2)n(S(=O)(=O)c2ccc(C(F)F)cc2)c2ccc(F)cc12` [Compound 21/3], the “hepatic expression and plasma levels of ANGPTL3” value ([1]; 15 mg/kg once daily oral) is reported as “reduced”, the “immunostaining of pancreatic sections for insulin relative to vehicle” value ([1]; 15 mg/kg once daily oral, 5 weeks) is reported as “more prominent staining for insulin” and the “glucose tolerance (oral glucose tolerance test)” value ([1]; 15 mg/kg once daily oral, after 4 weeks of dosing) is reported as “significantly improved”. For the same compound, the “liver expression of DNL genes (Srebp1c, Fasn, Acaca, Scd1)” value ([1]; 0.1 and 1 mg/kg once daily oral) was “dose-dependently reduced”, the “reduction of plasma TG compared with vehicle” value ([1]; highest dose 1 mg/kg, p≤0.05) was 96% and the “maximal reduction of liver TG versus vehicle” value ([1]; p≤0.01) was 49%. For the same compound, the “reduction of plasma total cholesterol (TC) at end of treatment compared with vehicle” value ([1]; p≤0.05) was 67%, the “plasma ApoC3 and ANGPTL3” value [4] was “reduces” and the IC50 [2] was 15 ± 4 nM. For the same compound, the IC50 [3] was 7 ± 5 nM, the Abdominal pain ([5]; 0.5 mg, fed) was 1 (13) and the “Any TEAE” value ([5]; 0.5 mg, fed) was 7 (88). For the same compound, the Back pain ([5]; 0.5 mg, fed) was 0 (0), the Diarrhea ([5]; 0.5 mg, fed) was 2 (25) and the “Grade ≥2 TEAE” value ([5]; 0.5 mg, fed) was 0 (0). For the same compound, the Headache ([5]; 0.5 mg, fed) was 1 (13), the Pruritis ([5]; 0.5 mg, fed) was 4 (50) and the “Serious TEAE” value ([5]; 0.5 mg, fed) was 0 (0). The “TEAE leading to study drug discontuation” value ([5]; 0.5 mg, fed) was 0 (0), the “Treatment-related TEAE” value ([5]; 0.5 mg, fed) was 0 (0) and the Abdominal pain ([5]; 2 mg, fed) was 0 (0). For the same compound, the “Any TEAE” value ([5]; 2 mg, fed) was 3 (38), the Back pain ([5]; 2 mg, fed) was 0 (0) and the Diarrhea ([5]; 2 mg, fed) was 0 (0). The Headache ([5]; 2 mg, fed) was 0 (0), the Pruritis ([5]; 2 mg, fed) was 0 (0) and the “Serious TEAE” value ([5]; 2 mg, fed) was 0 (0). For the same compound, the “TEAE leading to study drug discontuation” value ([5]; 2 mg, fed) was 0 (0), the “Treatment-related TEAE” value ([5]; 2 mg, fed) was 0 (0) and the “Grade ≥2 TEAE” value ([5]; 2 mg, fed, Grade 2 thrombophlebitis considered unrelated to study treatment) was 1 (13)*. The Abdominal pain ([5]; 6 mg (fasted)) was 1 (13), the “Any TEAE” value ([5]; 6 mg (fasted)) was 1 (13) and the Back pain ([5]; 6 mg (fasted)) was 0 (0). For the same compound, the Diarrhea ([5]; 6 mg (fasted)) was 0 (0), the “Grade ≥2 TEAE” value ([5]; 6 mg (fasted)) was 0 (0) and the Headache ([5]; 6 mg (fasted)) was 0 (0). For the same compound, the Pruritis ([5]; 6 mg (fasted)) was 0 (0), the “Serious TEAE” value ([5]; 6 mg (fasted)) was 0 (0) and the “TEAE leading to study drug discontuation” value ([5]; 6 mg (fasted)) was 0 (0). The “Treatment-related TEAE” value ([5]; 6 mg (fasted)) was 0 (0), the Abdominal pain ([5]; 6 mg, fed) was 1 (13) and the “Any TEAE” value ([5]; 6 mg, fed) was 5 (63). For the same compound, the Back pain ([5]; 6 mg, fed) was 2 (25), the Diarrhea ([5]; 6 mg, fed) was 1 (13) and the “Grade ≥2 TEAE” value ([5]; 6 mg, fed) was 0 (0). The Headache ([5]; 6 mg, fed) was 1 (13), the Pruritis ([5]; 6 mg, fed) was 0 (0) and the “Serious TEAE” value ([5]; 6 mg, fed) was 0 (0). The “TEAE leading to study drug discontuation” value ([5]; 6 mg, fed) was 0 (0), the “Treatment-related TEAE” value ([5]; 6 mg, fed) was 1 (13) and the Abdominal pain ([5]; 12 mg, fed) was 1 (13). The “Any TEAE” value ([5]; 12 mg, fed) was 3 (38), the Back pain ([5]; 12 mg, fed) was 0 (0) and the Diarrhea ([5]; 12 mg, fed) was 2 (25). The “Grade ≥2 TEAE” value ([5]; 12 mg, fed) was 0 (0), the Headache ([5]; 12 mg, fed) was 2 (25) and the Pruritis ([5]; 12 mg, fed) was 0 (0). For the same compound, the “Serious TEAE” value ([5]; 12 mg, fed) was 0 (0), the “TEAE leading to study drug discontuation” value ([5]; 12 mg, fed) was 0 (0) and the “Treatment-related TEAE” value ([5]; 12 mg, fed) was 2 (25). For the same compound, the tolerability ([5]; healthy subjects, 0.5, 2, 6, and 12 mg for 14 days) was “well tolerated”, the “subjects with treatment-related TEAEs (all mild, gastrointestinal)” value ([5]; healthy subjects, MAD cohorts) was 3 subjects and the “proportion of subjects with adverse events (AEs)” value ([5]; healthy subjects, MAD cohorts, range over dose groups) was 13-88%. The “subjects with mild (Grade 1), transient increase in serum ALT” value ([5]; healthy subjects, 6 mg group, fed) was “one”, the “subjects with mild (Grade 1), transient increase in serum ALT” value ([5]; healthy subjects, 12 mg group, fed) was 4 subjects and the safety and tolerability ([5]; healthy subjects, single and multiple daily doses up to 20 mg/d for 14 days) was “safe and well tolerated”.
